Measurements reported in patent US20230135127A1, “COMPOSITIONS AND METHODS FOR DISEASE TREATMENT AND PREVENTION BY PH MODIFIERS AND/OR CELL PROLIFERATION INHIBITORS” (priority 2021, published 2023).
Structures can show the parent of a compound that is named as a salt. Where two headings read alike, the source gives them in different places.

Legend:
Jurkat cells = system: Jurkat cells
Experimental: (§1) Jurkat and Raji tumor cell lines were maintained in Complete RPMI-1640 Medium (RPMI-1640 plus 1× GlutaMAX, 100 U/ml Pen-Strep (Gibco Life Technologies, Grand Island, N.Y., USA), and 5% heat-inactivated fetal bovine serum (FBS) (Atlanta Biologicals, Flowery Branch, Ga., USA)) at 37° C. and 5% CO2. The tumor cells were washed 3 times with saline plus 1% FBS before in vitro treatments with saline or saline plus pH modifiers.
(§2) For studies of the effects of pH modifier on proliferating cells, primary thymocytes or lymph node cells (4×10^6 cells/ml) were incubated in FBS comprising 10% of saline or 87.5 mM HCl, HOAc or NaOH prepared in saline in 37° C. water bath for 5 hours before analyses. The tumor cells (2×10^6 cells/ml) were incubated in FBS comprising 10% saline or 87.5 mM HCl, HOAc, or NaOH prepared in saline in 37° C. water bath for 3-5 hours.
Cells were washed 3 times with PBS then stained with Zombie viability dyes at room temperature for 20 minutes. At the end of incubation, 10% volume of FBS was added to absorb excess Zombie dyes. After washes, the cells were stained with conjugated antibodies against surface antigens on ice. As specified in some experiments, the cells were subsequently stained with fluorochrome-conjugated Avidin. For Annexin V staining, cells were washed twice with plain PBS and once with Annexin V binging buffer (10 mM HEPES, pH7.4, 140 mM NaCl, 2.5 mM CaCl2)) after surface antigen staining, and incubated with fluorochrome-conjugated Annexin V in Annexin V binding buffer for 15 min at room temperature. The cells were washed twice in Annexin V binding buffer and resuspended in Annexin V binding buffer. 7-AAD was added to the cells before analyzed by flow cytometry. […] Stained and unstained cells were analyzed on Accuri C6 Flow Cytomer (Accuri Cytometers, Inc., Ann Arbor, Mich.), FACS Canto (BD Bioscience, San Jose, Calif., USA) and Attune™ cytometer (Invitrogen, Carlsbad, Calif.). […]

Raji cells = test: In vitro treatment of Raji tumor cells in FBS
Experimental: as §1, §2
Cells were washed 3 times with PBS then stained with Zombie viability dyes at room temperature for 20 minutes. At the end of incubation, 10% volume of FBS was added to absorb excess Zombie dyes. […] 7-AAD was added to the cells before analyzed by flow cytometry. […] Stained and unstained cells were analyzed on Accuri C6 Flow Cytomer (Accuri Cytometers, Inc., Ann Arbor, Mich.), FACS Canto (BD Bioscience, San Jose, Calif., USA) and Attune™ cytometer (Invitrogen, Carlsbad, Calif.). […]

[1] = system: mucus secretion in the lungs; test: Asthma model: PAS staining of lung tissue; settings: i.t. HOAc or HCl; i.p. NaOH
[2] = system: mediastinal lymph node (MLN) cells; settings: for percentage of Lym2 lymphocytes in MLN: saline 2.26%; for percentage of Ki-67hi B cells in Lym1: saline 3.91%; for CD8 T cells within Lym1: saline 13.9%; for percentage of Lym1 lymphocytes in MLN: saline 73.7%; for percentage of Ki-67hi Lym1 B cells: saline 4.29%; for percentage of Ki-67hi Lym2 B cells: saline 35.2%
Experimental: For the analyses of the effects of pH modifiers on lymphocyte populations and their proliferation in vivo in Example 3, the mice were sensitized, challenged with OVA and received either i.t. or i.p. treatments. The same challenge and treatment solutions as in the asthma model were used. In the first set of experiments, the mice were challenged with 60 μl of 1×OVA challenge solution without pH modifiers by i.t. injection for 2 consecutive days. One day of the second challenge, the mice received one-time i.t. treatment with saline or saline plus HCl or HOAc. The mice were sacrificed the next day by CO2 inhalation to collect lymphoid tissues. In the second set of experiments, the mice were challenged with OVA and treated with i.t. instillation of saline or saline plus HCl or HOAc or treated with i.p. injection of saline plus NaOH for a total of 3 doses as in the asthma model. On day 3 after the final challenge and treatment, mice were sacrificed by CO2 inhalation to collect lymphoid tissues.
Cells were washed 3 times with PBS then stained with Zombie viability dyes at room temperature for 20 minutes. At the end of incubation, 10% volume of FBS was added to absorb excess Zombie dyes. After washes, the cells were stained with conjugated antibodies against surface antigens on ice. As specified in some experiments, the cells were subsequently stained with fluorochrome-conjugated Avidin. For Annexin V staining, cells were washed twice with plain PBS and once with Annexin V binging buffer (10 mM HEPES, pH7.4, 140 mM NaCl, 2.5 mM CaCl2)) after surface antigen staining, and incubated with fluorochrome-conjugated Annexin V in Annexin V binding buffer for 15 min at room temperature. The cells were washed twice in Annexin V binding buffer and resuspended in Annexin V binding buffer. 7-AAD was added to the cells before analyzed by flow cytometry. For Ki-67 and Foxp3 staining, lymphocytes (after Zombie dye and surface antigen staining) or tumor cells (without surface antigen staining) were fixed and permeabilized using Foxp3 staining buffer kit, then stained with PE-conjugated anti-mouse or human Ki-67 antibodies. (Biolegend, San Diego, Calif., USA). Stained and unstained cells were analyzed on Accuri C6 Flow Cytomer (Accuri Cytometers, Inc., Ann Arbor, Mich.), FACS Canto (BD Bioscience, San Jose, Calif., USA) and Attune™ cytometer (Invitrogen, Carlsbad, Calif.). Data analyses were carried out using FlowJo X.
The DLNs are the primary location where active immune responses to local antigen exposure take place. The DLNs of the lungs are the mediastinal lymph nodes (MLNs). Two sets of experiments using the OVA sensitization and challenge models were carried out to investigate whether pH modifiers can affect lymphocyte populations and proliferation. In the first set of experiments, MLNs were collected from the mice 3 days after the first OVA challenge and 1 day after a single treatment. In the second set of experiments, MLNs were collected 7 days after the initial challenge and 3 days after the third treatments.

[3] = 1 day after single i.t. treatment
[4] = 1 day after single i.t. treatment, saline 4.5×10^7
[5] = 3 days after third treatment, saline 5.96×10^7
[6] = FBS with 10% of 87.5 mM modifier, 37° C., 3-5 hours, saline 73.4%

Structure (SMILES): CC(=O)O [HOAc, acetic acid]
- viability (live cells) of Jurkat cells (Jurkat cells; human, 8.75 mM): 34.3%
- viability (live cells) of Raji cells (Raji cells; human, 8.75 mM): 48.9%
- mucus secretion (PAS staining) in the lungs [1]: only faint PAS staining
- reduction of total MLN cells vs saline [2, 3]: 84%
- average number of total MLN cells [2, 4]: 0.75×10^7
- reduction of total MLN cells vs saline ([2]; 3 days after third treatment): 29%
- average number of total MLN cells [2, 5]: 4.23×10^7
- percentage of Lym2 lymphocytes in MLN ([2]; first set): 0.35%
- percentage of Ki-67hi Lym1 cells ([2]; first set, saline 3.31%): 1.65%
- percentage of Ki-67hi B cells in Lym1 ([2]; first set): 1.58%
- CD8 T cells within Lym2 ([2]; first set, saline 9.69%): 2.7%
- CD8 T cells within Lym1 ([2]; first set): 1.75%
- CD4 T cells within Lym2 ([2]; first set, saline 14.2%): 3.23%
- CD4 T cells within Lym1 ([2]; first set, saline 39.6%): 8.17%
- B cells within Lym1 ([2]; first set, saline 42.5%): 22.2%
- percentage of Ki-67hi Lym2 cells ([2]; first set, saline 54.5%): 27.2%
- B cells within Lym2 ([2]; first set, saline 62.6%): 46.9%
- percentage of Ki-67hi B cells in Lym2 ([2]; first set, saline 62.6%): 37.9%
- percentage of Lym1 lymphocytes in MLN ([2]; first set): 32.4%
- percentage of Ki-67lo cells in Lym1 ([2]; first set, saline 80.4%): 32.9%
- Ki-67 mean fluorescence intensities of Ki-67hi Lym2 and Lym2 B cells vs saline ([2]; second set): much lower
- increase of B cells within Lym1 vs saline ([2]; second set): 60.4%
- reduction of CD4 T cells within Lym1 vs saline ([2]; second set): 19.3%
- reduction of CD4 T cells within Lym2 vs saline ([2]; second set): 88%
- reduction of CD8 T cells within Lym1 vs saline ([2]; second set): 46.8%
- reduction of CD8 T cells within Lym2 vs saline ([2]; second set): 91.7%
- percentage of Ki-67hi Lym1 cells ([2]; second set, saline 2.73%): 2.67%
- CD8 T cells within Lym2 ([2]; second set, saline 4.21%): 0.35%
- percentage of Ki-67hi Lym1 B cells ([2]; second set): 2.38%
- CD4 T cells within Lym2 ([2]; second set, saline 6.91%): 0.8%
- percentage of Lym2 in MLN ([2]; second set, saline 8.10%): 38.7%
- CD8 T cells within Lym1 ([2]; second set): 7.39%
- B cells within Lym1 ([2]; second set, saline 27.3%): 43.8%
- percentage of Ki-67hi Lym2 cells ([2]; second set, saline 34.9%): 25.3%
- percentage of Ki-67hi Lym2 B cells ([2]; second set): 24.9%
- CD4 T cells within Lym1 ([2]; second set, saline 54.9%): 44.3%
- B cells within Lym2 ([2]; second set, saline 84%): 93%

Structure (SMILES): Cl [HCl, hydrochloric acid]
- viability (live cells) of Jurkat cells (Jurkat cells; [6]): 22.1%
- viability (live cells) of Raji cells (Raji cells; FBS with 10% of 87.5 mM modifier, 37° C., 3-5 hours, saline 89.4%): 49.2%
- mucus secretion (PAS staining) in the lungs [1]: only faint PAS staining
- reduction of total MLN cells vs saline [2, 3]: 12%
- average number of total MLN cells [2, 4]: 4.0×10^7
- reduction of total MLN cells vs saline ([2]; 3 days after third treatment): 5.5%
- average number of total MLN cells [2, 5]: 5.6×10^7
- percentage of Lym2 lymphocytes in MLN ([2]; first set): 2.83%
- percentage of Ki-67hi Lym1 cells ([2]; first set, saline 3.31%): 2.92%
- percentage of Ki-67hi B cells in Lym1 ([2]; first set): 2.79%
- CD8 T cells within Lym2 ([2]; first set, saline 9.69%): 8.2%
- CD4 T cells within Lym2 ([2]; first set, saline 14.2%): 13.4%
- B cells within Lym1 ([2]; first set, saline 42.5%): 34.4%
- percentage of Ki-67hi Lym2 cells ([2]; first set, saline 54.5%): 49.1%
- B cells within Lym2 ([2]; first set, saline 62.6%): 44.8%
- percentage of Ki-67hi B cells in Lym2 ([2]; first set, saline 62.6%): 51.1%
- percentage of Lym1 lymphocytes in MLN ([2]; first set): 68.3%
- Ki-67 mean fluorescence intensities of Ki-67hi Lym2 and Lym2 B cells vs saline ([2]; second set): much lower
- percentage of Ki-67hi Lym1 cells ([2]; second set, saline 2.73%): 2.42%
- percentage of Ki-67hi Lym1 B cells ([2]; second set): 3.62%
- percentage of Ki-67hi Lym2 cells ([2]; second set, saline 34.9%): 34.9%
- percentage of Ki-67hi Lym2 B cells ([2]; second set): 35.5%

Structure (SMILES): [Na+].[OH-] [NaOH, sodium hydroxide]
- viability (live cells) of Jurkat cells (Jurkat cells; [6]): 70.4%
- mucus secretion (PAS staining) in the lungs [1]: no reduction of mucus secretion or PAS staining
- increase of total MLN cells vs saline ([2]; 3 days after third i.p. treatment): 32%
- average number of total MLN cells [2, 5]: 7.9×10^7
- Ki-67 mean fluorescence intensities of Ki-67hi Lym2 and Lym2 B cells vs saline ([2]; second set): higher
- percentage of Ki-67hi Lym1 cells ([2]; second set, saline 2.73%): 3.48%
- percentage of Ki-67hi Lym1 B cells ([2]; second set): 4.23%
- percentage of Ki-67hi Lym2 cells ([2]; second set, saline 34.9%): 42.2%
- percentage of Ki-67hi Lym2 B cells ([2]; second set): 44.7%
